Source: US20230167118A1, “DEGRADATION OF BRUTON'S TYROSINE KINASE (BTK) BY CONJUGATION OF BTK INIDBITORS WITH E3 LIGASE LIGAND AND METHODS OF USE” (BEIGENE, LTD., priority 2020, published 2023)
Where a name gives a salt, the structure may show the parent alone.

Assays:
BTK = target: T1, BTK (Homo sapiens, UniProt Q06187); assay: Cell Degradation: BTK degradation in TMD-8 cells, HTRF assay; assay type: cell-based; conditions: 6 h treatment, IC50 (DC50) of BTK degradation
T1 construct: High control=Cell group with added DMSO and without compound, indicating microplate readings without BTK degradation; endogenous in cells; host or cells: TMD-8 cells
Procedure, shortened: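 TMD-8 cells treated 6 h with 8-dose 6-fold dilutions in 0.2% DMSO, then lysed and BTK quantified by HTRF (665/620 nm). Degradation % normalised to high/low controls; DC50 from four-parameter fit, Dmax as maximal degradation.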

HEK-293 cells = assay: HEK-293 Cytotoxicity Assay (CellTiter-Glo); assay type: cell-based; conditions: Homo sapiens, HEK293, 72 h incubation, CellTiter-Glo luminescence
Procedure, shortened: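 HEK-293 cells treated 72 h with 8 concentrations (4-fold dilutions, 0.2% DMSO final). Viability read by CellTiter-Glo luminescence; IC50 from four-parameter logistic fit of % inhibition.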

T1 sequence (Q06187 whole entry): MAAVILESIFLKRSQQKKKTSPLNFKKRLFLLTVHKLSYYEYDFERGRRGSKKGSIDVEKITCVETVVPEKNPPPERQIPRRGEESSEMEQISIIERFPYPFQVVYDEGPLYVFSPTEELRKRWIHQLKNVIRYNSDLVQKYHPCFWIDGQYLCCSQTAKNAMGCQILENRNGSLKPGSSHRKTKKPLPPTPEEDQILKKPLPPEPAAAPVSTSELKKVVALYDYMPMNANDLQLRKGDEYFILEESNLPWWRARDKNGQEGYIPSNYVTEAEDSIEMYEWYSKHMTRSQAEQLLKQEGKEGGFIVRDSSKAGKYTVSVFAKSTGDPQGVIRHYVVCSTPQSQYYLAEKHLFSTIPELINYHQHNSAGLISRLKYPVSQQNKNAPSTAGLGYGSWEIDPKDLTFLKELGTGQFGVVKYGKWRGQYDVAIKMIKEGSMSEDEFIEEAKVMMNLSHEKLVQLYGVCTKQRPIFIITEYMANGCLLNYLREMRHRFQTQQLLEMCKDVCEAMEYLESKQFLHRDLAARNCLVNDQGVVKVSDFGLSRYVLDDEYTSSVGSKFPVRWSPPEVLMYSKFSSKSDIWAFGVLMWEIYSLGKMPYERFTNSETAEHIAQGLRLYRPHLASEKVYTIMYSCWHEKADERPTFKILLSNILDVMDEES

SMILES | DC50 (BTK) [nM] | IC50 (HEK-293 cells) [nM]
Cc1c(NC(=O)c2ccc(C(C)(C)O)cc2F)cc(F)cc1-c1ncnc2[nH]c(-c3ccc(C4CCN(CC5CCN(c6ccc(N7CCC(=O)NC7=O)cc6)CC5)CC4)cc3)cc12 [Example 28, N-(3-(6-(4-(1-((1-(4-(2,4-dioxotetrahydropyrimidin-1(2H)-yl)phenyl)piperidin-4-yl)methyl)piperidin-4-yl)phenyl)-7H-pyrrolo[2,3-d]pyrimidin-4-yl)-5-fluoro-2-methylphenyl)-2-fluoro-4-(2-hydroxypropan-2-yl)benzamide] | 1.5 | 4240
Cc1cc(-c2ncnc3[nH]c(-c4ccc(N5CCN(CC6CCN(c7ccc(N8CCC(=O)NC8=O)cc7)CC6)CC5)nc4)cc23)ccc1[C@@H](C)NC(=O)c1cc(C(C)(C)C)on1 [Example 117, (R)-5-(tert-butyl)-N-(1-(4-(6-(6-(4-((1-(4-(2,4-dioxotetrahydropyrimidin-1(2H)-yl)phenyl)piperidin-4-yl)methyl)piperazin-1-yl)pyridin-3-yl)-7H-pyrrolo[2,3-d]pyrimidin-4-yl)-2-methylphenyl)ethyl)isoxazole-3-carboxamide] | 3.72 | > 10000
Cc1cc(-c2ncnc3[nH]c(-c4ccc(C5CCN(CCC6CCN(c7ccc(C8CCC(=O)NC8=O)cc7)CC6)CC5)cc4)cc23)ccc1CNC(=O)c1nc(C(C)(C)C)no1 (centres unmarked) [Example 4, 3-(tert-butyl)-N-(4-(6-(4-(1-(2-(1-(4-(2,6-dioxopiperidin-3-yl)phenyl)piperidin-4-yl)ethyl)piperidin-4-yl)phenyl)-7H-pyrrolo[2,3-d]pyrimidin-4-yl)-2-methylbenzyl)-1,2,4-oxadiazole-5-carboxamide] | 2.3 | 3700
Cc1cc(-c2ncnc3[nH]c(-c4ccc(N5CCN(CC6CCN(c7ccc(N8CCC(=O)NC8=O)cc7)CC6)CC5)c(F)c4)cc23)ccc1[C@@H](C)NC(=O)c1nc(C(C)(C)C)no1 [Example 38, (R)-3-(tert-butyl)-N-(1-(4-(6-(4-(4-((1-(4-(2,4-dioxotetrahydropyrimidin-1(2H)-yl)phenyl)piperidin-4-yl)methyl)piperazin-1-yl)-3-fluorophenyl)-7H-pyrrolo[2,3-d]pyrimidin-4-yl)-2-methylphenyl)ethyl)-1,2,4-oxadiazole-5-carboxamide, Formate] | 2.1 | > 10000
Cc1cc(-c2ncnc3[nH]c(-c4ccc(N5CCN(CC6CCN(c7ccc(N8CCC(=O)NC8=O)cc7)CC6)CC5)nc4)cc23)ccc1[C@@H](C)NC(=O)c1nc(C(C)(C)C)no1 [Example 14, (R)-3-(tert-butyl)-N-(1-(4-(6-(6-(4-((1-(4-(2,4-dioxotetrahydropyrimidin-1(2H)-yl)phenyl)piperidin-4-yl)methyl)piperazin-1-yl)pyridin-3-yl)-7H-pyrrolo[2,3-d]pyrimidin-4-yl)-2-methylphenyl)ethyl)-1,2,4-oxadiazole-5-carboxamide] | 0.72 | > 10000
Cc1cc(-c2ncnc3[nH]c(-c4ccc(N5CCN(CC6CCN(c7ccc(N8CCC(=O)NC8=O)cc7)CC6)CC5)cn4)cc23)ccc1[C@@H](C)NC(=O)c1nc(C(C)(C)C)no1 [Example 19, (R)-3-(tert-butyl)-N-(1-(4-(6-(5-(4-((1-(4-(2,4-dioxotetrahydropyrimidin-1(2H)-yl)phenyl)piperidin-4-yl)methyl)piperazin-1-yl)pyridin-2-yl)-7H-pyrrolo[2,3-d]pyrimidin-4-yl)-2-methylphenyl)ethyl)-1,2,4-oxadiazole-5-carboxamide] | 0.72 | > 10000
CC(C)(C)c1noc(C(=O)NCc2ccc(-c3ncnc4[nH]c(-c5ccc(N6CCN(CC7CCN(c8ccc(N9CCC(=O)NC9=O)cc8)CC7)CC6)nc5)cc34)cc2F)n1 [Example 42, 3-(tert-butyl)-N-(4-(6-(6-(4-((1-(4-(2,4-dioxotetrahydropyrimidin-1(2H)-yl)phenyl)piperidin-4-yl)methyl)piperazin-1-yl)pyridin-3-yl)-7H-pyrrolo[2,3-d]pyrimidin-4-yl)-2-fluorobenzyl)-1,2,4-oxadiazole-5-carboxamide] | 0.51 | > 10000
Cc1cc(-c2ncnc3[nH]c(-c4ccc(C5CCN(CC6CCN(c7ccc(N8CCC(=O)NC8=O)cc7)CC6)C5)nc4)cc23)ccc1[C@@H](C)NC(=O)c1nc(C(C)(C)C)no1 (stereo partly drawn) [Example 162, 3-(tert-butyl)-N-((1R)-1-(4-(6-(6-(1-((1-(4-(2,4-dioxotetrahydropyrimidin-1(2H)-yl)phenyl)piperidin-4-yl)methyl)pyrrolidin-3-yl)pyridin-3-yl)-7H-pyrrolo[2,3-d]pyrimidin-4-yl)-2-methylphenyl)ethyl)-1,2,4-oxadiazole-5-carboxamide] | 1.6 | > 10000
Cc1cc(-c2ncnc3[nH]c(-c4ccc(N5CCN(CC6CCN(c7ccc(N8CCC(=O)NC8=O)cc7)CC6)CC5)cc4)cc23)ccc1CNC(=O)c1nc(C(C)(C)C)no1 [Example 18, 3-(tert-butyl)-N-(4-(6-(4-(4-((1-(4-(2,4-dioxotetrahydropyrimidin-1(2H)-yl)phenyl)piperidin-4-yl)methyl)piperazin-1-yl)phenyl)-7H-pyrrolo[2,3-d]pyrimidin-4-yl)-2-methylbenzyl)-1,2,4-oxadiazole-5-carboxamide] | 1.7 | > 10000
Cc1cc(-c2ncnc3[nH]c(-c4ccc(N5CCN(CC6CCN(c7ccc(N8CCC(=O)NC8=O)cc7)CC6)CC5)cc4)cc23)ccc1[C@@H](C)NC(=O)c1noc(C(C)(C)C)n1 [Example 41, (R)-5-(tert-butyl)-N-(1-(4-(6-(4-(4-((1-(4-(2,4-dioxotetrahydropyrimidin-1(2H)-yl)phenyl)piperidin-4-yl)methyl)piperazin-1-yl)phenyl)-7H-pyrrolo[2,3-d]pyrimidin-4-yl)-2-methylphenyl)ethyl)-1,2,4-oxadiazole-3-carboxamide] | 1.3 | > 10000
COc1ccc(C(=O)N2CCC(CN3CCC(Oc4ccc(-c5cc6c(-c7ccc(CNC(=O)c8nc(C(C)(C)C)no8)c(C)c7)ncnc6[nH]5)cc4)CC3)CC2)cc1N1CCC(=O)NC1=O [Example 27, 3-(tert-butyl)-N-(4-(6-(4-((1-((1-(3-(2,4-dioxotetrahydropyrimidin-1(2H)-yl)-4-methoxybenzoyl)piperidin-4-yl)methyl)piperidin-4-yl)oxy)phenyl)-7H-pyrrolo[2,3-d]pyrimidin-4-yl)-2-methylbenzyl)-1,2,4-oxadiazole-5-carboxamide] | 1.9 | > 10000
Cc1cc(-c2ncnc3[nH]c(-c4ccc(N5CCN(CC6CCN(c7ccc(N8CCC(=O)NC8=O)c(C)c7)CC6)CC5)cc4)nc23)ccc1[C@@H](C)NC(=O)c1nc(C(C)(C)C)no1 [Example 67, (R)-3-(tert-butyl)-N-(1-(4-(8-(4-(4-((1-(4-(2,4-dioxotetrahydropyrimidin-1(2H)-yl)-3-methylphenyl)piperidin-4-yl)methyl)piperazin-1-yl)phenyl)-9H-purin-6-yl)-2-methylphenyl)ethyl)-1,2,4-oxadiazole-5-carboxamide] | 0.69 | > 10000
Cc1cc(-c2ncnc3[nH]c(-c4cccc(N5CCN(CC6CCN(c7ccc(N8CCC(=O)NC8=O)cc7)CC6)CC5)c4)cc23)ccc1[C@@H](C)NC(=O)c1nc(C(C)(C)C)no1 [Example 116, (R)-3-(tert-butyl)-N-(1-(4-(6-(3-(4-((1-(4-(2,4-dioxotetrahydropyrimidin-1(2H)-yl)phenyl)piperidin-4-yl)methyl)piperazin-1-yl)phenyl)-7H-pyrrolo[2,3-d]pyrimidin-4-yl)-2-methylphenyl)ethyl)-1,2,4-oxadiazole-5-carboxamide] | 2.28 | > 10000
